Experimental data from US12227482B2, “Compounds and compositions for the treatment of cancer” (The Regents of the University of California, priority 2016, dated 2025).

Columns and labels:
Assay type in all cases: cell-based
MelJuSo cells = test: Cell viability (CellTiter-Glo ATP content) in MelJuSo cells; details: Homo sapiens, MEL-JUSO, 72 hours treatment, cell survival by CellTiter-Glo, 2% fetal bovine serum
In short: (§1)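 Cells plated at 5,000 per well in antibiotic-free RPMI with 2% FBS, treated next day in triplicate with increasing compound doses (final DMSO 0.5%) for 72 hours. Viability read as ATP content by CellTiter-Glo luminescence; percent survival relative to vehicle control set as 100%.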

LOX cells = test: Cell viability (CellTiter-Glo ATP content) in LOX cells; details: LOX, 72 h, 72 hours treatment, cell survival by CellTiter-Glo, 2% fetal bovine serum
In short: as §1

A549 cells = test: Cell viability (CellTiter-Glo ATP content) in A549 cells; details: Homo sapiens, A549, 72 h, 72 hours treatment, cell survival by CellTiter-Glo, 2% fetal bovine serum
In short: as §1

Structure (SMILES) | IC50 (MelJuSo cells) [µM] | IC50 (LOX cells) [µM] | IC50 (A549 cells) [µM]
CCCCC1C(c2ccc(Cl)cc2F)=NN(c2ccccc2)C1(C)C(=O)NCCOC (stereo not drawn) [Compound 54, 4-butyl-3-(4-chloro-2-fluorophenyl)-N-(2-methoxyethyl)-5-methyl-1-phenyl-4,5-dihydro-1H-pyrazole-5-carboxamide] | > 2 | > 2 | > 2
CCCCC1C(c2ccc(F)cc2)=NN(c2ccc(F)cc2F)C1(C)C(=O)NCC(=O)O (stereo not drawn) [Compound 82, 2-(4-butyl-1-(2,4-difluorophenyl)-3-(4-fluorophenyl)-5-methyl-4,5-dihydro-1H-pyrazole-5-carboxamido)acetic acid] | > 2 | > 2 | > 2
CC1(C(=O)NCC(=O)OCCO)C(c2cccs2)C(c2ccc(F)cc2)=NN1c1ccc(F)cc1F (stereo not drawn) [Compound 128, 2-hydroxyethyl 2-(1-(2,4-difluorophenyl)-3-(4-fluorophenyl)-5-methyl-4-(thiophen-2-yl)-4,5-dihydro-1H-pyrazole-5-carboxamido)acetate] | 0.25 to 0.5 | 0.5 to 1 | 0.5 to 1
CCCCC1C(c2ccc(F)cc2)=NN(c2ccccc2)C1(C)C(=O)NCC(C)CN(C)C (stereo not drawn) [Compound 77, 4-butyl-N-(3-(dimethylamino)-2-methylpropyl)-3-(4-fluorophenyl)-5-methyl-1-phenyl-4,5-dihydro-1H-pyrazole-5-carboxamide] | > 2 | > 2 | 0.25 to 0.5
CCCCC1C(c2ccc(F)cc2)=NN(c2ccccc2)C1(C)C(=O)NCC1CCCCC1 (stereo not drawn) [Compound 51, 4-butyl-N-(cyclohexylmethyl)-3-(4-fluorophenyl)-5-methyl-1-phenyl-4,5-dihydro-1H-pyrazole-5-carboxamide] | > 2 | > 2 | > 2
CCCCC1C(c2ccc(F)cc2)=NN(c2ccccc2)C1(C)C(=O)NCCC(C)N(C)C (stereo not drawn) [Compound 75, 4-butyl-N-(3-(dimethylamino)butyl)-3-(4-fluorophenyl)-5-methyl-1-phenyl-4,5-dihydro-1H-pyrazole-5-carboxamide] | > 2 | > 2 | 0.5 to 1
COC(=O)CNC(=O)C1(C)C(c2cccs2)C(c2ccc(F)cc2)=NN1c1ccc(F)cc1F (stereo not drawn) [Compound 103, methyl 2-(1-(2,4-difluorophenyl)-3-(4-fluorophenyl)-5-methyl-4-(thiophen-2-yl)-4,5-dihydro-1H-pyrazole-5-carboxamido)acetate] | < 0.25 | 0.5 to 1 | 0.5 to 1
CCCCC1C(c2ccc(F)cc2)=NN(c2ccccc2)C1(C)C(=O)NCc1cccc(OC)c1OC (stereo not drawn) [Compound 45, 4-butyl-N-(2,3-dimethoxybenzyl)-3-(4-fluorophenyl)-5-methyl-1-phenyl-4,5-dihydro-1H-pyrazole-5-carboxamide] | > 2 | > 2 | > 2
CCCCC1C(c2ccc(F)cc2)=NN(c2ccccc2)C1(C)C(=O)N(CCO)Cc1ccccc1 (stereo not drawn) [Compound 78, N-benzyl-4-butyl-3-(4-fluorophenyl)-N-(2-hydroxyethyl)-5-methyl-1-phenyl-4,5-dihydro-1H-pyrazole-5-carboxamide] | > 2 | > 2 | > 2
COC(=O)CNC(=O)C1(C)C(c2ccsc2)C(c2ccc(F)cc2F)=NN1c1ccc(F)cc1F (stereo not drawn) [Compound 119, methyl 2-(1,3-bis(2,4-difluorophenyl)-5-methyl-4-(thiophen-3-yl)-4,5-dihydro-1H-pyrazole-5-carboxamido)acetate] | < 0.25 | 0.25 to 0.5 | 0.5 to 1
CCCCC1C(c2ccc(F)cc2)=NN(c2ccccc2)C1(C)C(=O)NCc1ccc(OC)cc1OC (stereo not drawn) [Compound 46, 4-butyl-N-(2,4-dimethoxybenzyl)-3-(4-fluorophenyl)-5-methyl-1-phenyl-4,5-dihydro-1H-pyrazole-5-carboxamide] | > 2 | > 2 | > 2
CCCCC1C(c2ccc(S(C)(=O)=O)cc2)=NN(c2ccc(F)cc2F)C1(C)C(=O)NCCCC(C)(C)CO (stereo not drawn) [Compound 113, 4-butyl-1-(2,4-difluorophenyl)-N-(5-hydroxy-4,4-dimethylpentyl)-5-methyl-3-(4-(methylsulfonyl)phenyl)-4,5-dihydro-1H-pyrazole-5-carboxamide] | > 2 | > 2 | > 2
CON(C)C(=O)CNC(=O)C1(C)C(c2cccs2)C(c2ccc(F)cc2)=NN1c1ccc(F)cc1F (stereo not drawn) [Compound 111, 1-(2,4-difluorophenyl)-3-(4-fluorophenyl)-N-(2-(methoxy(methyl)amino)-2-oxoethyl)-5-methyl-4-(thiophen-2-yl)-4,5-dihydro-1H-pyrazole-5-carboxamide] | > 2 | > 2 | > 2
CC(C)(C)OC(=O)N1CCOC(CNC(=O)C2(C)C(c3ccc(Cl)o3)C(c3ccc(F)cc3F)=NN2c2ccc(F)cc2F)C1 (stereo not drawn) [Compound 138, tert-butyl 2-((4-(5-chlorofuran-2-yl)-1,3-bis(2,4-difluorophenyl)-5-methyl-4,5-dihydro-1H-pyrazole-5-carboxamido)methyl)morpholine-4-carboxylate] | > 2 | > 2 | > 2
